Experiments:
[1] = Cytotoxicity against human HL-60(TB) cells assessed as growth inhibition after 48 hrs by SRB assay; assay type: functional; conditions: HL-60, 48 h
[2] = Cytotoxicity against human MOLT4 cells assessed as growth inhibition after 48 hrs by SRB assay; assay type: functional; conditions: MOLT-4, 48 h
[3] = Cytotoxicity against human SR cells assessed as growth inhibition after 48 hrs by SRB assay; assay type: functional
[4] = Cytotoxicity against human EKVX cells assessed as growth inhibition after 48 hrs by SRB assay; assay type: functional
[5] = Cytotoxicity against human HOP62 cells assessed as growth inhibition after 48 hrs by SRB assay; assay type: functional; conditions: HOP-62, 48 h
[6] = Cytotoxicity against human NCI-H23 cells assessed as growth inhibition after 48 hrs by SRB assay; assay type: functional; conditions: NCI-H23, 48 h
[7] = Cytotoxicity against human HCC2998 cells assessed as growth inhibition after 48 hrs by SRB assay; assay type: functional; conditions: HCC 2998, 48 h
[8] = Cytotoxicity against human HCT15 cells assessed as growth inhibition after 48 hrs by SRB assay; assay type: functional; conditions: HCT-15, 48 h
[9] = Cytotoxicity against human SF268 cells assessed as growth inhibition after 48 hrs by SRB assay; assay type: functional; conditions: SF-268, 48 h
[10] = Cytotoxicity against human SF295 cells assessed as growth inhibition after 48 hrs by SRB assay; assay type: functional; conditions: SF-295, 48 h
[11] = Cytotoxicity against human OVCAR8 cells assessed as growth inhibition after 48 hrs by SRB assay; assay type: functional; conditions: OVCAR-8, 48 h
[12] = Cytotoxicity against human ACHN cells assessed as growth inhibition after 48 hrs by SRB assay; assay type: functional
[13] = Cytotoxicity against human Caki1 cells assessed as growth inhibition after 48 hrs by SRB assay; assay type: functional; conditions: CAKI-1, 48 h
[14] = Cytotoxicity against human SN12C cells assessed as growth inhibition after 48 hrs by SRB assay; assay type: functional
[15] = Cytotoxicity against human Hs 578T cells assessed as growth inhibition after 48 hrs by SRB assay; assay type: functional
[16] = Cytotoxicity against human T47D cells assessed as growth inhibition after 48 hrs by SRB assay; assay type: functional
[17] = Cytotoxicity against human NCI-H23 cells assessed as assessed as growth inhibition at 10^-5 M after 48 hrs by SRB assay relative to control; assay type: functional; conditions: NCI-H23, 48 h, read-out: GI
[18] = Cytotoxicity against human HCC2998 cells assessed as assessed as growth inhibition at 10^-5 M after 48 hrs by SRB assay relative to control; assay type: functional; conditions: HCC 2998, 48 h, read-out: GI
[19] = Cytotoxicity against human KM12 cells assessed as assessed as growth inhibition at 10^-5 M after 48 hrs by SRB assay relative to control; assay type: functional; conditions: KM12, 48 h, read-out: GI
[20] = Cytotoxicity against human SF268 cells assessed as assessed as growth inhibition at 10^-5 M after 48 hrs by SRB assay relative to control; assay type: functional; conditions: SF-268, 48 h, read-out: GI
[21] = Cytotoxicity against human SF295 cells assessed as assessed as growth inhibition at 10^-5 M after 48 hrs by SRB assay relative to control; assay type: functional; conditions: SF-295, 48 h, read-out: GI
[22] = Cytotoxicity against human SNB75 cells assessed as assessed as growth inhibition at 10^-5 M after 48 hrs by SRB assay relative to control; assay type: functional; conditions: SNB-75, 48 h, read-out: GI
[23] = Cytotoxicity against human M14 cells assessed as assessed as growth inhibition at 10^-5 M after 48 hrs by SRB assay relative to control; assay type: functional; conditions: M14, 48 h, read-out: GI
[24] = Cytotoxicity against human MDA-MB-435 cells assessed as assessed as growth inhibition at 10^-5 M after 48 hrs by SRB assay relative to control; assay type: functional; conditions: MDA-MB-435, 48 h, read-out: GI
[25] = Cytotoxicity against human SK-MEL-2 cells assessed as assessed as growth inhibition at 10^-5 M after 48 hrs by SRB assay relative to control; assay type: functional; conditions: SK-MEL-2, 48 h, read-out: GI
[26] = Cytotoxicity against human UACC257 cells assessed as assessed as growth inhibition at 10^-5 M after 48 hrs by SRB assay relative to control; assay type: functional; conditions: UACC-257, 48 h, read-out: GI
[27] = Cytotoxicity against human OVCAR3 cells assessed as assessed as growth inhibition at 10^-5 M after 48 hrs by SRB assay relative to control; assay type: functional; conditions: OVCAR-3, 48 h, read-out: GI
[28] = Cytotoxicity against human SKOV3 cells assessed as assessed as growth inhibition at 10^-5 M after 48 hrs by SRB assay relative to control; assay type: functional; conditions: SK-OV-3, 48 h, read-out: GI
[29] = Cytotoxicity against human SN12C cells assessed as assessed as growth inhibition at 10^-5 M after 48 hrs by SRB assay relative to control; assay type: functional; conditions: read-out: GI
[30] = Cytotoxicity against human PC3 cells assessed as assessed as growth inhibition at 10^-5 M after 48 hrs by SRB assay relative to control; assay type: functional; conditions: PC-3, 48 h, read-out: GI
[31] = Cytotoxicity against human MDA-MB-231 cells assessed as assessed as growth inhibition at 10^-5 M after 48 hrs by SRB assay relative to control; assay type: functional; conditions: MDA-MB-231, 48 h, read-out: GI
Mus musculus = species: Mus musculus; assay: Genotoxicity in mouse EAC cells at 125 uM after 24 hrs by micronucleus assay (reference value: 3.5 +/- 0.30%); assay type: toxicity, cell-based; conditions: ehrlich
[32] = Induction of apoptosis in mouse EAC cells at 125 uM after 24 hrs by acridine orange dye-based fluorescence microscopy (reference value: 0.66 +/- 0.33%); assay type: cell-based; conditions: ehrlich
[33] = Induction of apoptosis in mouse EAC cells at 375 uM after 24 hrs by acridine orange dye-based fluorescence microscopy (reference value: 0.66 +/- 0.33%); assay type: cell-based; conditions: ehrlich
[34] = read-out: LD50 (the source's name)

O=C1Cc2cc(CCn3ccnc3)c(Cl)cc2N1
GI50 [1]: 6.32 µM | TGI [1]: > 1000 nM | CC50 [1, 34]: > 1000 nM | GI50 [2]: 5.67 µM | TGI [2]: > 1000 nM | CC50 [2, 34]: > 1000 nM | GI50 [3]: 9.24 µM | TGI [3]: > 1000 nM | CC50 [3, 34]: > 1000 nM | GI50 [4]: 6.13 µM | TGI [4]: > 1000 nM | CC50 [4, 34]: > 1000 nM | GI50 [5]: 3.32 µM | TGI [5]: > 1000 nM | CC50 [5, 34]: > 1000 nM | GI50 [6]: 4.08 µM | TGI [6]: > 1000 nM | CC50 [6, 34]: > 1000 nM | GI50 [7]: 3.22 µM | TGI [7]: > 1000 nM | CC50 [7, 34]: > 1000 nM | GI50 [8]: 7.07 µM | TGI [8]: > 1000 nM | CC50 [8, 34]: > 1000 nM | GI50 [9]: 1210 nM | TGI [9]: > 1000 nM | CC50 [9, 34]: > 1000 nM | GI50 [10]: 7.87 µM | TGI [10]: > 1000 nM | CC50 [10, 34]: > 1000 nM | GI50 [11]: 2410 nM | TGI [11]: > 1000 nM | CC50 [11, 34]: > 1000 nM | GI50 [12]: 2030 nM | TGI [12]: > 1000 nM | CC50 [12, 34]: > 1000 nM | GI50 [13]: 6.32 µM | TGI [13]: > 1000 nM | CC50 [13, 34]: > 1000 nM | GI50 [14]: 1650 nM | TGI [14]: > 1000 nM | CC50 [14, 34]: > 1000 nM | GI50 [15]: 8.73 µM | TGI [15]: 9.92 µM | CC50 [15, 34]: > 1000 nM | GI50 [16]: 7.56 µM | TGI [16]: > 1000 nM | CC50 [16, 34]: > 1000 nM | inhibition of growth at 10 µM [17]: 73.3% | inhibition of growth at 10 µM [18]: 28.5% | inhibition of growth at 10 µM [19]: 67.8% | inhibition of growth at 10 µM [20]: 27.6% | inhibition of growth at 10 µM [21]: 36.6% | inhibition of growth at 10 µM [22]: 31.7% | inhibition of growth at 10 µM [23]: 76.3% | inhibition of growth at 10 µM [24]: 72% | inhibition of growth at 10 µM [25]: 19.3% | inhibition of growth at 10 µM [26]: 39.8% | inhibition of growth at 10 µM [27]: 36.5% | inhibition of growth at 10 µM [28]: 21.4% | inhibition of growth at 10 µM [29]: 48.8% | inhibition of growth at 10 µM [30]: 11.7% | inhibition of growth at 10 µM [31]: 54.5% | Activity (Mus musculus): 2.76% | Activity [32]: 0.33% | Activity [33]: 0.66%

Source: ChEMBL document CHEMBL3856212, “Synthesis, anti-proliferative and genotoxicity studies of 6-chloro-5-(2-substituted-ethyl)-1,3-dihydro-2H-indol-2-ones and 6-chloro-5-(2-chloroethyl)-3-(alkyl/ary-2-ylidene)indolin-2-ones” (Eur J Med Chem, 2016)
